Experimental data from the supplement of paper PMC10307832.

What was measured:
Test in all cases: relative viability (nuclei count vs DMSO), 5 days (fraction); higher = more cells survive
[1] = compound: C#Cc1cccc(Nc2ncnc3cc(OCCOC)c(OCCOC)cc23)c1 [Erlotinib] + CC1(C)CCC(c2ccc(Cl)cc2)=C(CN2CCN(c3ccc(C(=O)NS(=O)(=O)c4ccc(N[C@H](CCN5CCOCC5)CSc5ccccc5)c(S(=O)(=O)C(F)(F)F)c4)cc3)CC2)C1 [Navitoclax] (partner 0.5 µM)
Method in brief: (§1)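 Dosing by pin tool came one day after lung cancer cell lines were seeded in 1536-well plates, using either one drug or a fixed anchor-drug dose plus five library-drug doses (not always all listed) in √10 steps. After 5 days, nuclei were counted on 4× images. Relative viability is treated-well nuclei count divided by vehicle-well nuclei count, and values are medians of duplicate plates.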

[2] = compound: C#Cc1cccc(Nc2ncnc3cc(OCCOC)c(OCCOC)cc23)c1 [Erlotinib] + C[C@@H](Oc1cc(-c2cnn(C3CCNCC3)c2)cnc1N)c1c(Cl)ccc(F)c1Cl [Crizotinib] (partner 1 µM)
Method in brief: as §1

[3] = compound: O=C(Nc1c[nH]nc1-c1nc2ccc(CN3CCOCC3)cc2[nH]1)NC1CC1 [AT9283] + CC1(C)CCC(c2ccc(Cl)cc2)=C(CN2CCN(c3ccc(C(=O)NS(=O)(=O)c4ccc(N[C@H](CCN5CCOCC5)CSc5ccccc5)c(S(=O)(=O)C(F)(F)F)c4)cc3)CC2)C1 [Navitoclax] (partner 0.5 µM)
Method in brief: as §1

[4] = compound: O=C(Nc1c[nH]nc1-c1nc2ccc(CN3CCOCC3)cc2[nH]1)NC1CC1 [AT9283] + Cc1cc(Nc2cc(N3CCN(C)CC3)nc(Sc3ccc(NC(=O)C4CC4)cc3)n2)n[nH]1 [Tozasertib] (partner 0.1 µM)
Method in brief: as §1

[5] = compound: O=C(Nc1c[nH]nc1-c1nc2ccc(CN3CCOCC3)cc2[nH]1)NC1CC1 [AT9283] + Cc1nc(Nc2ncc(C(=O)Nc3c(C)cccc3Cl)s2)cc(N2CCN(CCO)CC2)n1 [Dasatinib] (partner 0.075 µM)
Method in brief: as §1

NCI-H441
relative viability ([1]; first compound 0.02 µM): 1.03 | relative viability ([1]; first compound 0.2 µM): 0.805 | relative viability ([1]; first compound 0.6325 µM): 0.555 | relative viability ([1]; first compound 2 µM): 0.302 | relative viability ([2]; first compound 0.02 µM): 0.831 | relative viability ([2]; first compound 0.2 µM): 0.751 | relative viability ([2]; first compound 0.6325 µM): 0.772 | relative viability ([2]; first compound 2 µM): 0.677 | relative viability ([3]; first compound 0.003 µM): 0.432 | relative viability ([3]; first compound 0.03 µM): 0.433 | relative viability ([3]; first compound 0.09487 µM): 0.255 | relative viability ([3]; first compound 0.3 µM): 0.204 | relative viability ([4]; first compound 0.003 µM): 0.707 | relative viability ([4]; first compound 0.03 µM): 0.715 | relative viability ([4]; first compound 0.09487 µM): 0.361 | relative viability ([4]; first compound 0.3 µM): 0.31 | relative viability ([5]; first compound 0.003 µM): 0.567 | relative viability ([5]; first compound 0.03 µM): 0.49 | relative viability ([5]; first compound 0.09487 µM): 0.318 | relative viability ([5]; first compound 0.3 µM): 0.209
